Data set [1] in a line: acute toxicity (LD50 table, level of toxicity). To be noted: in vivo. An excerpt:
This low level of toxicity appears from the following table: […]

For the next data set, the system named is Rhine virus. The experiment in a line: activity against Rhine virus.
The nature of data set [2]: anti-inflammatory and analgetic activities, general statement. To be noted: test not specified. The data set is classed as in vivo.
For data set [3] the following is noted: known compound, background, cited from earlier work.
[4] abbreviates: po, route of administration: or(al).
The mark [5] stands for this setting: route of administration: par(enteral).

Consider 22 compounds from patent publication US4196216A, “Novel benzylidene amini-oxyalkyl carboxylic acids and carboxylic acid derivatives” (U.S. Philips Corporation, priority 1968, dated 1980).

By LD50 is commonly meant the dose expected to kill half of the subjects tested. Low readings indicate a more toxic substance, high ones a less toxic substance. `CC(=NOCC(=O)OCc1ccccc1)c1ccc(Cl)cc1` [C1 H H CH3 CH2 OCH2 C6 H5] gave a 50% lethal dose (LD50) at 24 h in data set [1] (setting [4]) of more than 1000 mg/kg.

For the compound `CCCCCCCCOC(=O)CON=C(C)c1ccc(Cl)cc1` [C1 H H CH3 CH2 OnC8 H17], the LD50 at 24 h in data set [1] (setting [4]) is more than 1000 mg/kg.

Consider `CC(=NOCC(N)=O)c1ccc(Cl)c(Cl)c1` [C1 C1 H CH3 CH2 NH2, [(α-methyl-3,4-dichlorobenzylidene amino)oxy] acetamide], for which, in data set [1] (setting [4]), the LD50 at 24 h was approximately 1000 mg/kg. In the data set on Rhine virus, the “activity against Rhine virus” value is reported as “interesting activity”.

In data set [1] (setting [5]), `CC(=NOCC(=O)O)c1ccc(Br)cc1` [Br H H CH3 CH2 OH] had an LD50 at 24 h of more than 100 mg/kg.

As to `CCCCNC(=O)CON=C(C)c1ccc(Cl)cc1` [N-n.butyl-[(α-methyl-4-chlorobenzylideneamino)oxy] acetamide], the “activity against Rhine virus” value in the data set on Rhine virus is given as “interesting activity”.

In data set [1] (setting [5]), `CC(=NOCC(=O)O)c1ccc(Cl)cc1Cl` [C1 H C1 CH3 CH2 OH, [(α-methyl-2,4-dichlorobenzylidene amino)oxy] acetic acid] yielded an LD50 at 24 h of more than 320 mg/kg. In the data set with Rhine virus, the “activity against Rhine virus” value is “interesting activity”.

In data set [1] (setting [4]), `COC(=O)CON=C(C)c1ccc(Cl)cc1` [C1 H H CH3 CH2 OCH3, [(α-methyl-4-chlorobenzylidene amino)oxy] acetic acid methyl ester] displayed an LD50 at 24 h of more than 1000 mg/kg and an LD50 at 48 h of more than 1000 mg/kg. The activities entry in data set [2] was “particularly strong activities”.

Compound `CC(=NOCCC(=O)O)c1ccc(Cl)cc1` [C1 H H CH3 (CH2)2 OH, 3-[(α-methyl-4-chlorobenzylideneamino)oxy] propionic acid] returned an LD50 at 24 h in data set [1] (setting [5]) of more than 100 mg/kg.

Turning to `CC(=NOCC(=O)O)c1cccc(Cl)c1` [H C1 H CH3 CH2 OH], the LD50 at 24 h in data set [1] (setting [5]) was more than 320 mg/kg.

In data set [1] (setting [4]), `CC(=NOCC(N)=O)c1ccc(Cl)cc1` [C1 H H CH3 CH2 NH2, [(α-methyl-4-chlorobenzylidene amino)oxy]acetamide] registered an LD50 at 24 h of more than 1000 mg/kg and an LD50 at 48 h of more than 1000 mg/kg. For the same compound, the activities result in data set [2] is on record as “particularly strong activities”. Further, in the data set on Rhine virus, the “activity against Rhine virus” value is “interesting activity”.

As to `CC(=NOCCCC(=O)O)c1ccc(Cl)cc1` [C1 H H CH3 (CH2)3 OH, 4-[(α-methyl-4-chlorobenzylideneamino)oxy] butyric acid], in data set [1] (setting [5]), the LD50 at 24 h is more than 320 mg/kg. Further, in the data set with Rhine virus, the “activity against Rhine virus” value was “interesting activity”.

In data set [1] (setting [4]), `CC(=NOCC(=O)O)c1ccc(Cl)cc1` [C1 H H CH3 CH2 OH, [(α-methyl-4-chlorobenzylidene amino)oxy] acetic acid] had an LD50 at 24 h of more than 1000 mg/kg and an LD50 at 48 h of more than 1000 mg/kg. For the same compound, in data set [2], the activities result is recorded as “particularly strong activities”.

`CC(=NOCC(=O)O)c1ccc(S(C)(=O)=O)cc1` [CH3 SO2 H H CH3 CH2 OH] yielded a median lethal dose (LD50) at 24 h in data set [1] (setting [5]) of more than 320 mg/kg.

In data set [1] (setting [4]), `CNC(=O)CON=C(C)c1ccc(Cl)cc1` [C1 H H CH3 CH2 NHCH3, [(α-methyl-4-chlorobenzylidene amino)oxy]-N-methyl acetamide] showed an LD50 at 24 h of more than 1000 mg/kg.

Turning to `CC(=NOCC(=O)O)c1ccc(Cl)c(Cl)c1` [C1 C1 H CH3 CH2 OH, [(α-methyl-3,4-dichlorobenzylene amino)oxy] acetic acid], in data set [1] (setting [5]), the median lethal dose (LD50) at 24 h is more than 320 mg/kg.

As for `O=C(O)CON=Cc1ccc(Cl)cc1` [C1 H H H CH2 OH, [(4-chlorobenzylidene amino)oxy] acetic acid], the LD50 at 24 h in data set [1] (setting [5]) is more than 320 mg/kg.

As to `CC(=NOCCC(N)=O)c1ccc(Cl)cc1` [C1 H H CH3 (CH2)2 NH2, 3-[(α-methyl-4-chlorobenzylideneamino)oxy] propionamide], the median lethal dose (LD50) at 24 h in data set [1] (setting [4]) is more than 1000 mg/kg.

Turning to `COc1ccc2c(c1)c(CC(=O)O)cn2-c1ccc(Cl)cc1` [(N-p.chlorophenyl-5-methoxy indolyl-3) acetic acid], in data set [3], the potency entry is “highly potent” and the toxicity level entry is “high toxicity level”. Moreover, in data set [3] (due to high toxicity), the therapeutic level result is given as “quite low”.

With `CC(=NOCC(=O)OC(C)C)c1ccc(Cl)cc1` [C1 H H CH3 CH2 OCH(CH3)2], the LD50 at 24 h in data set [1] (setting [4]) was more than 1000 mg/kg.

In turn, `CC(=NOCC(=O)O)c1ccc(C)cc1` [CH3 H H CH3 CH2 OH] showed an LD50 at 24 h in data set [1] (setting [5]) of more than 320 mg/kg.

As for `CC(=NOCC(=O)N(C)C)c1ccc(Cl)cc1` [C1 H H CH3 CH2 (CH3)2 N, [(α-methyl-4-chlorobenzylidene amino)oxy]-N,N-dimethyl acetamide], the LD50 at 24 h in data set [1] (setting [4]) is more than 1000 mg/kg.

In data set [1] (setting [4]), `CC(=NOCC(=O)NN)c1ccc(Cl)cc1` [C1 H H CH3 CH2 NHNH2, [(α-methyl-4-chlorobenzylidene amino)oxy] acet hydrazide] yielded a median lethal dose (LD50) at 24 h of approximately 1000 mg/kg. In addition, in the data set on Rhine virus, the “activity against Rhine virus” value is recorded as “interesting activity”.
